3 compounds from patent US10138254B2, “Bicyclic compounds as pest control agents” (BAYER CROPSCIENCE AKTIENGESELLSCHAFT, priority 2014, dated 2018) can be followed below.

Data set [1] can be described thus: log P by HPLC on reversed-phase (C18) columns, OECD Guideline 117. The following applies: reversed-phase (C18) HPLC column. Format: physicochemical. How it is done: The log P values were determined in accordance with OECD Guideline 117 (EC Directive 92/69/EEC) by HPLC (high-performance liquid chromatography) using reversed-phase (RP) columns (C18), by the following methods: [a] The LC-MS determination in the acidic range is carried out at pH 2.7 with 0.1% aqueous formic acid and acetonitrile (contains 0.1% formic acid) as eluents; linear gradient from 10% acetonitrile to 95% acetonitrile. [b] LC-MS determination in the neutral range is effected at pH 7.8 with 0.001 molar aqueous ammonium hydrogencarbonate solution and acetonitrile as eluents; linear gradient from 10% acetonitrile to 95% acetonitrile. Calibration is carried out using unbranched alkan-2-ones (having 3 to 16 carbon atoms) with known log P values (log P values determined on the basis of the retention times by linear interpolation between two successive alkanones).

Data set [2] has as its system larvae of the mustard beetle (Phaedon cochleariae). Briefly: Phaedon cochleariae spray test (Chinese cabbage leaf discs). Format: in vivo. The following applies: application rate 500 g/ha, after 7 days, 100% = all beetle larvae killed. On the procedure:
Phaedon cochleariae—Spray Test
(§1) Solvent: 78.0 parts by weight of acetone • • 1.5 parts by weight of dimethylformamide
(§2) Emulsifier: alkylaryl polyglycol ether
(§3) To produce a suitable active ingredient formulation, 1 part by weight of active ingredient is dissolved with the specified parts by weight of solvent and made up with water containing an emulsifier concentration of 1000 ppm until the desired concentration is attained. To produce further test concentrations, the formulation is diluted with emulsifier-containing water.
After 7 days, the efficacy in % is determined. 100% means that all the beetle larvae have been killed; 0% means that no beetle larvae have been killed.

Data set [3] relates to green peach aphid (Myzus persicae). Briefly: Myzus persicae spray test (Chinese cabbage leaf discs). The following applies: Myzus persicae, foliar, 144 h, application rate 500 g/ha, after 6 days, 100% = all aphids killed, read-out: efficacy. The class given is in vivo. On the procedure: Myzus persicae—Spray Test Solvent: 78 parts by weight of acetone • • 1.5 parts by weight of dimethylformamide Emulsifier: alkylaryl polyglycol ether To produce a suitable active ingredient formulation, 1 part by weight of active ingredient is dissolved with the specified parts by weight of solvent and made up with water containing an emulsifier concentration of 1000 ppm until the desired concentration is attained. To produce further test concentrations, the formulation is diluted with emulsifier-containing water. Discs of Chinese cabbage leaves (Brassica pekinensis) infested by all stages of the green peach aphid (Myzus persicae) are sprayed with an active ingredient formulation of the desired concentration. After 6 days, the efficacy in % is determined. 100% means that all the aphids have been killed; 0% means that no aphids have been killed.

The test system of data set [4] is greenhouse red spider mite (Tetranychus urticae). The data set can be described thus: Tetranychus urticae spray test, OP-resistant (bean leaf discs). The class given is in vivo. As to conditions: application rate 500 g/ha, after 6 days, 100% = all spider mites killed. How it is done: Tetranychus urticae—Spray Test, OP-Resistant
as §1, §2, §3
Discs of bean leaves (Phaseolus vulgaris) infested with all stages of the greenhouse red spider mite (Tetranychus urticae) are sprayed with an active ingredient formulation of the desired concentration.
After 6 days, the efficacy in % is determined. 100% means that all the spider mites have been killed; 0% means that no spider mites have been killed.

In data set [5] the test system is green peach aphid (Myzus persicae). The data set can be described thus: Myzus persicae spray test (bell pepper plants). Format: in vivo. As to conditions: application rate 4 ppm, after 6 days, 100% = all aphids killed. How it is done: Myzus persicae—Spray Test Solvent: 7 parts by weight of dimethylformamide Emulsifier: alkylaryl polyglycol ether To produce a suitable active ingredient formulation, 1 part by weight of active ingredient is dissolved with the specified parts by weight of solvent and made up with water containing an emulsifier concentration of 1000 ppm until the desired concentration is attained. To produce further test concentrations, the formulation is diluted with emulsifier-containing water. If the addition of ammonium salts or/and penetrants is required, these are each added in a concentration of 1000 ppm to the formulation solution. Bell pepper plants (Capsicum annuum) severely infested with the green peach aphid (Myzus persicae) are treated by spraying with the active ingredient formulation in the desired concentration. After 6 days, the kill in % is determined. 100% means that all of the aphids have been killed; 0% means that none of the aphids have been killed.

[6] abbreviates: acidic range, pH 2.7, 0.1% aqueous formic acid and acetonitrile, read-out: LogP[a].
The mark [7] stands for this setting: neutral range, pH 7.8, 0.001 molar aqueous ammonium hydrogencarbonate and acetonitrile, read-out: logP[b].

Like-named read-outs stand apart in the source and are kept apart here.

As to `Cn1c(=O)cnn(-c2cnc3nc(-c4cccnc4)sc3c2)c1=O` [Example 39, 4-Methyl-2-[2-(pyridin-3-yl)[1,3]thiazolo[4,5-b]pyridin-6-yl]-1,2,4-triazine-3,5(2H,4H)-dione], the results for the chromatographic logP in data set [1] (setting [6]) and in data set [1] (setting [7]) were 1.29 and 1.36, respectively. In data set [2], the efficacy is reported as 83%. In addition, in data set [3], the pest or weed control at 500 g/ha was 90%.

Consider `Cc1cc(F)c(-c2cnc3nc(-c4cccnc4)sc3c2)cc1SCC(F)(F)F` [Example 22, 6-{2-Fluoro-4-methyl-5-[(2,2,2-trifluoroethyl)sulphanyl]phenyl}-2-(pyridin-3-yl)[1,3]thiazolo[4,5-b]pyridine], for which the chromatographic logP in data set [1] (setting [6]) came out at 3.83; in data set [1] (setting [7]), 3.78. Moreover, the efficacy in data set [4] is listed as 90%. Moreover, the pest or weed control at 500 g/ha in data set [3] amounted to 100%.

In the case of `Cc1cc(C)c([S+]([O-])CC(F)(F)F)cc1-c1cnc2nc(-c3ccc[n+]([O-])c3)sc2c1` (centres unmarked) [Example 21], the figures for the chromatographic logP in data set [1] (setting [6]) and in data set [1] (setting [7]) were 1.91 and 1.86, respectively. In data set [5], the “efficacy (kill)” value was 100%.
